Values joined by “and” are separate entries in the source; they are usually repeats but may differ in a detail not shown here. Identical values can stand only once.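 Method: 48-hour compound exposure of cells in 96-well plates, five concentrations, linear interpolation of endpoints. Abbreviation: GI50, concentration required for 50% inhibition of growth. Definition used: TGI = concentration required for complete inhibition of growth.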
Legend:
Assay in all cases: DTP human tumour cell line panel, 48 h
[1] = tested on: SN12C renal
[2] = tested on: MALME-3M melanoma
[3] = tested on: HCC-2998 colon
[4] = tested on: NCI-H522 lung
[5] = tested on: NCI-H23 lung
[6] = tested on: SF-295 CNS
[7] = tested on: HOP-62 NSCLC
[8] = tested on: SW-620 colon
[9] = tested on: HOP-92 NSCLC
[10] = tested on: SK-OV-3 ovarian

Compound	GI50 [1]	TGI [1]	GI50 [2]	TGI [2]	GI50 [3]	TGI [3]	GI50 [4]	TGI [4]	GI50 [5]	TGI [5]	GI50 [6]	TGI [6]	GI50 [7]	TGI [7]	GI50 [8]	TGI [8]	GI50 [9]	TGI [9]	GI50 [10]	TGI [10]
Cn1c([N+](=O)[O-])cnc1/C=C1\Oc2ccc(Cl)cc2C1=O	738 nM	3.46 µM	1420 nM	4.78 µM	2020 nM	4.68 µM	528 nM	2190 nM	652 nM	4.47 µM	1720 nM	5.65 µM	1600 nM	4.78 µM	181 nM	0.66 µM	1030 nM	4.12 µM	2050 nM	7.24 µM
COc1ccc(-c2nccn2-c2cc(OC)c(OC)c(OC)c2)cc1	9810 nM	> 100 µM	1960 nM	> 100 µM	1090 nM	39.9 µM	2800 nM	> 100000 nM	9090 nM	> 100 µM	1780 nM	> 68.1 µM	13700 nM	> 100 µM	1340 nM	> 100 µM	7010 nM	> 100 µM	6130 nM	> 25.6 µM
CC(=O)NC1C(=O)CC(c2ccccc2)N(C)C1c1ccccc1 (configuration not stated)		> 100 µM		> 100 µM		> 100 µM		> 100000 nM		> 100 µM		> 100 µM		> 100 µM		> 100 µM		> 100 µM		> 100 µM
CCOC(=O)C(Cc1ccc(N(CCCl)CCCl)cc1)NC(=O)C(CC(C)C)NC(C)=O (configuration not stated)	999 nM	10.9 µM	873 nM	2.74 µM	1820 nM	5.95 µM	1130 nM	2650 nM	679 nM	2.68 µM	2120 nM	16.6 µM	1320 nM	3.8 µM	1080 nM	6.03 µM	727 nM	2.82 µM	1380 nM	4.94 µM
O=c1[nH]c2cccccc-2c1-c1nc2ccccc2[nH]1		> 100 µM		50.6 µM		> 100 µM		42300 nM		> 100 µM		> 100 µM		94.8 µM		> 100 µM		93.6 µM		51.2 µM
CC(=O)OC1C(OC/C2=C/C3[C@@H](C(C)C)CC=C(C)[C@@H]3CC(OC(=O)/C=C/c3cn(C)cn3)[C@]3(C)C=C[C@@]2(O)O3)OCC(O)C1O (some centres not stated)	186 nM	> 50 µM	19.5 nM	> 50 µM	13.4 nM	0.0658 µM	15 nM		22.7 nM	> 50 µM	30 nM	0.296 µM	24.6 nM		18.8 nM	> 50 µM	1020 nM	> 50 µM	13.2 nM	
C=C1C(=O)O[C@H]2[C@H]1CC/C(Cn1cc(CNC(=O)c3cc4ccccc4[nH]3)nn1)=C\CC[C@@]1(C)O[C@@H]21	1970 nM	4.66 µM	1750 nM	3.55 µM	14000 nM	31.5 µM	921 nM	2840 nM	14300 nM	34.5 µM	18900 nM	39 µM	13300 nM	31.3 µM	1970 nM	3.94 µM	1530 nM	3.16 µM	50400 nM	> 100 µM
CC(CCC/C=C/CCCN(C)C(=N)N)CC(C)C1OC(=O)C(C)C(O)/C=C/C(C)C(O)C(C)C(O)C(C)C(O)CCCC(O)CC2(O)OC(CC(OC(=O)CC(=O)O)CC(O)CC(O)C(C)C(O)/C=C/C=C/C1C)CC(O)C2O (configuration not stated)	2.22 µM and 2.78 µg/mL	4.97 µM and 12 µg/mL	2.37 µM and 2.57 µg/mL	5 µM and 11.7 µg/mL	3.18 µM and 10.9 µg/mL	12.1 µM and 23.4 µg/mL	2.38 µM and 2.79 µg/mL	10.5 µM and 12.9 µg/mL	5.99 µM and 13.7 µg/mL	20.8 µM and 29.4 µg/mL	4.16 µM and 11.7 µg/mL	17 µM and 22.5 µg/mL	4.29 µM and 10.5 µg/mL	17.1 µM and 21.6 µg/mL	2.02 µM and 9.83 µg/mL	3.7 µM and 21.7 µg/mL	1.92 µM and 9.74 µg/mL	6.57 µM and 20.1 µg/mL	3 µM and 9.08 µg/mL	11.7 µM and 18.5 µg/mL
